According to publication PMC12775434, “Ultra-large virtual screening unveils potent agonists of the neuromodulatory orphan receptor GPR139” (Nature Communications, 2025):
“And” between values parts separate entries of the source, which are not always exact repeats. Identical values can stand only once.

Legend:
Format in all cases: cell-based
GPR139 [1] = biological target: T1, GPR139 (Homo sapiens, UniProt Q6DWJ6); experiment: Ca2+ mobilization assay, agonist mode, stable GPR139-CHOk1 cell line; conditions: for EC50 / Emax: Supplementary Table 2, mean ± SEM; for EC50: read-out: pEC50 Ca2+ (converted); for Emax: normalized to Lundbeck Cmp 1a, read-out: Emax (%) Ca2+
T1 sequence (Q6DWJ6 1-353): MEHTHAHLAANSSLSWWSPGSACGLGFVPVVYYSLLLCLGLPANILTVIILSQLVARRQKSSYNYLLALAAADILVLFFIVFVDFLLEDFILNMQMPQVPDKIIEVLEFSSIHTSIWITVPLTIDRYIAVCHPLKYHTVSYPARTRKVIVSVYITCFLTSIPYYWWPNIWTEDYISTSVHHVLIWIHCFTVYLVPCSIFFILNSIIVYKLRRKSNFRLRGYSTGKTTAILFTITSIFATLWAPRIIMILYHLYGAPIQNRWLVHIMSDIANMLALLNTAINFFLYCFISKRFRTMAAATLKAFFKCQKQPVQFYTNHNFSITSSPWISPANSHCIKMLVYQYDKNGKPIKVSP
Outline: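 Agonist activity of compounds is assessed in stably transfected CHO-K1 cells using the calcium dye Fluo-4 at 37 °C in HEPES-buffered HBSS (pH 7.4). Efficacy is expressed relative to the reference agonist Lundbeck Cmp 1a, set as 100%.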

GPR139 [2] = biological target: T1, GPR139; experiment: Ca2+ mobilization assay, antagonist mode (EC80 800 nM Lundbeck Cmp 1a after 20 min preincubation), GPR139-CHOk1
Outline: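 Fluo-4-loaded GPR139-CHOk1 cells in HEPES-buffered HBSS (pH 7.4, 2.5 mM probenecid) given test compounds at 10 µM, then after 20 min challenged with 800 nM Lundbeck Cmp 1a (EC80). Calcium fluorescence read at 37 °C, 485/525 nm.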

[3] = biological target: T2, human muscarinic acetylcholine M1 receptor (M1R) (Homo sapiens, UniProt P11229); experiment: Ca2+ mobilization counter-screen in M1R-CHOk1 cells
T2 sequence (P11229 1-460): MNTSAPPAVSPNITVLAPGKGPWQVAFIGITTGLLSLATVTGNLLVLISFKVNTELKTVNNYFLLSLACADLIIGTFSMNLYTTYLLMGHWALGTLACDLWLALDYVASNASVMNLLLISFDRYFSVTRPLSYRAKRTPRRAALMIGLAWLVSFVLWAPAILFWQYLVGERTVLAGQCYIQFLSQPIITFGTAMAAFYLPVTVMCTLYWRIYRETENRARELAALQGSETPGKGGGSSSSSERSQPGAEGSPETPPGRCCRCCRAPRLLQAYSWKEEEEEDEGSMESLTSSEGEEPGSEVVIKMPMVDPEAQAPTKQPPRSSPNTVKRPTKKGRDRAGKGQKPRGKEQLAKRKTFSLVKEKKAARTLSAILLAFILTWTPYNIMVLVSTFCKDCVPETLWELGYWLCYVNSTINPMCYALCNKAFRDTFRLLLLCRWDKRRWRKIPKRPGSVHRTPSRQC
Outline: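 M1R-CHOk1 cells seeded 20–24 h, loaded with 2 µM Fluo-4 AM (2.5 mM probenecid, 0.01% Pluronic F-68) for 1 h at 37 °C in HBSS/20 mM HEPES pH 7.4. Compounds added after baseline (≤0.3% DMSO); calcium fluorescence read at 37 °C, ex 485/em 525 nm.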

[4] = Agonist mode, individual replicates (Supplementary Figure 4)
[5] = log [Compound] M = -4.5, individual replicate columns
[6] = log [Compound] M = -5.0, individual replicate columns
[7] = log [Compound] M = -5.5, individual replicate columns
[8] = log [Compound] M = -6.0, individual replicate columns
[9] = log [Compound] M = -6.5, individual replicate columns
[10] = log [Compound] M = -7.0, individual replicate columns
[11] = log [Compound] M = -7.5, individual replicate columns
[12] = log [Compound] M = -8.0, individual replicate columns
[13] = log [Compound] M = -8.5, individual replicate columns
[14] = log [Compound] M = -9.0, individual replicate columns
[15] = individual replicates (Supplementary Figure 4)
[16] = individual replicates (Supplementary Figure 5)

| Structure (SMILES) | Ca2+ signal (% of Cmp 1a) (GPR139 [1]; [4]) | EC50 (GPR139 [1]) [µM] | Emax (GPR139 [1]) [%] | Ca2+ signal (% of Cmp 1a) (GPR139 [1]; [5]) | Ca2+ signal (% of Cmp 1a) (GPR139 [1]; [6]) | Ca2+ signal (% of Cmp 1a) (GPR139 [1]; [7]) | Ca2+ signal (% of Cmp 1a) (GPR139 [1]; [8]) | Ca2+ signal (% of Cmp 1a) (GPR139 [1]; [9]) | Ca2+ signal (% of Cmp 1a) (GPR139 [1]; [10]) | Ca2+ signal (% of Cmp 1a) (GPR139 [1]; [11]) | Ca2+ signal (% of Cmp 1a) (GPR139 [1]; [12]) | Ca2+ signal (% of Cmp 1a) (GPR139 [1]; [13]) | Ca2+ signal (% of Cmp 1a) (GPR139 [1]; [14]) | Ca2+ signal (% of Cmp 1a) (GPR139 [2]; [15]) | Ca2+ signal (% of Carbachol) [3, 16] | other results |
| --- | --- | --- | --- | --- | --- | --- | --- | --- | --- | --- | --- | --- | --- | --- | --- | --- |
| C[C@H](NC(=O)c1ccc(Cn2cc(Cl)cn2)o1)c1ccccc1 [Compound 8, C[C@H](NC(=O)C1=CC=C(CN2C=C(Cl)C=N2)O1)C=3C=CC=CC3] |  |  |  |  |  |  |  |  |  |  |  |  |  |  |  | Ca2+ signal (% of Cmp 1a) (GPR139 [1]; 0.1 µM, individual replicates (Supplementary Figure 3)): -2.0 % of Cmp 1a and -2.7 % of Cmp 1a; Ca2+ signal (% of Cmp 1a) (GPR139 [1]; 1 µM, individual replicates (Supplementary Figure 3)): 3.0 % of Cmp 1a and 3.4 % of Cmp 1a; Ca2+ signal (% of Cmp 1a) (GPR139 [1]; 10 µM, individual replicates (Supplementary Figure 3)): 24.4 % of Cmp 1a and 22.7 % of Cmp 1a; Ca2+ signal (% of Cmp 1a) (GPR139 [1]; Agonist mode, individual replicates (Supplementary Figure 1)): 47 % of Cmp 1a and 45 % of Cmp 1a and 51 % of Cmp 1a; Ca2+ signal (% of Cmp 1a) (GPR139 [1]; primary screen, 10 µM compound, agonist mode, three columns = independent experiments): 47 % of Cmp 1a and 45 % of Cmp 1a and 51 % of Cmp 1a; Ca2+ signal (% of Cmp 1a) (GPR139 [2]; individual replicates (Supplementary Figure 1)): 48.2832 % of Cmp 1a and 57.355 % of Cmp 1a and 45.2011 % of Cmp 1a; Ca2+ signal (% of Carbachol) ([3]; individual replicates (Supplementary Figure 2)): -17 % of Carbachol and 6 % of Carbachol |
| Cc1ccc(-c2nc(CC(=O)NC(C)c3ccccc3)no2)cc1C (stereo not drawn) [Compound 1.20, CC(C1=CC=CC=C1)NC(CC2=NOC(C3=CC(C)=C(C)C=C3)=N2)=O] | 61 % of Cmp 1a and 51 % of Cmp 1a and 42 % of Cmp 1a | 1.26 | 86 ± 11 | 64 % of Cmp 1a and 88 % of Cmp 1a and 90 % of Cmp 1a | 59 % of Cmp 1a and 87 % of Cmp 1a and 93 % of Cmp 1a | 48 % of Cmp 1a and 72 % of Cmp 1a and 74 % of Cmp 1a | 21 % of Cmp 1a and 45 % of Cmp 1a and 55 % of Cmp 1a | 9 % of Cmp 1a and 20 % of Cmp 1a and 28 % of Cmp 1a | 10 % of Cmp 1a and 20 % of Cmp 1a and 26 % of Cmp 1a | 10 % of Cmp 1a and -2 % of Cmp 1a and 9 % of Cmp 1a | 2 % of Cmp 1a and -1.33 % of Cmp 1a and 4.67 % of Cmp 1a | 7 % of Cmp 1a and -0.667 % of Cmp 1a and -6 % of Cmp 1a | 5 % of Cmp 1a and 1.33 % of Cmp 1a and 10 % of Cmp 1a | 4 % of Cmp 1a and 29 % of Cmp 1a and -0.333 % of Cmp 1a | -9 % of Carbachol and 12 % of Carbachol and 5 % of Carbachol |  |
| Cc1cc(-c2nc(CC(=O)NC(C)c3ccccc3)no2)no1 (stereo not drawn) [Compound 1.23, CC(C1=CC=CC=C1)NC(CC2=NOC(C3=NOC(C)=C3)=N2)=O] | 72 % of Cmp 1a and 57 % of Cmp 1a and 85 % of Cmp 1a | 1.58 | 95 ± 3 | 95 % of Cmp 1a and 102 % of Cmp 1a and 98 % of Cmp 1a and 93 % of Cmp 1a | 96 % of Cmp 1a and 81 % of Cmp 1a and 85 % of Cmp 1a and 77 % of Cmp 1a | 80 % of Cmp 1a and 55 % of Cmp 1a and 48 % of Cmp 1a and 70 % of Cmp 1a | 56 % of Cmp 1a and 30 % of Cmp 1a and 19 % of Cmp 1a and 38 % of Cmp 1a | 38 % of Cmp 1a and 9 % of Cmp 1a and -1 % of Cmp 1a and 11 % of Cmp 1a | 18 % of Cmp 1a and 5.7 % of Cmp 1a and 1.07 % of Cmp 1a and 6 % of Cmp 1a | 12 % of Cmp 1a (2×) and 15 % of Cmp 1a and 0.388 % of Cmp 1a | -3 % of Cmp 1a and 11 % of Cmp 1a and 10 % of Cmp 1a and 0.199 % of Cmp 1a | -4.71 % of Cmp 1a and 7 % of Cmp 1a and 14 % of Cmp 1a and -1.47 % of Cmp 1a | 4 % of Cmp 1a and 6.41 % of Cmp 1a and 7 % of Cmp 1a and -2.26 % of Cmp 1a | 15 % of Cmp 1a and 20 % of Cmp 1a and 10 % of Cmp 1a | -3 % of Carbachol and 4.36 % of Carbachol and 7 % of Carbachol |  |
| Cc1cccc(-c2nc(CC(=O)NC(C)c3ccccc3)no2)n1 (stereo not drawn) [Compound 1.13, CC(C1=CC=CC=C1)NC(CC2=NOC(C3=NC(C)=CC=C3)=N2)=O] | 87 % of Cmp 1a and 109 % of Cmp 1a and 94 % of Cmp 1a | 0.398 | 95 ± 10 | 113 % of Cmp 1a and 100 % of Cmp 1a and 105 % of Cmp 1a and 55 % of Cmp 1a | 98 % of Cmp 1a and 101 % of Cmp 1a and 89 % of Cmp 1a and 78 % of Cmp 1a | 85 % of Cmp 1a and 87 % of Cmp 1a and 83 % of Cmp 1a and 50 % of Cmp 1a | 76 % of Cmp 1a and 73 % of Cmp 1a (2×) and 42 % of Cmp 1a | 49 % of Cmp 1a (2×) and 40 % of Cmp 1a and 22 % of Cmp 1a | 28 % of Cmp 1a and 33 % of Cmp 1a and 12 % of Cmp 1a (2×) | 0 % of Cmp 1a and 14 % of Cmp 1a and -10 % of Cmp 1a and 13 % of Cmp 1a | 8 % of Cmp 1a and 0.667 % of Cmp 1a and -4 % of Cmp 1a and -5 % of Cmp 1a | 8 % of Cmp 1a and -4.67 % of Cmp 1a and -2.67 % of Cmp 1a and -3 % of Cmp 1a | 2 % of Cmp 1a (2×) and -0.333 % of Cmp 1a and -15 % of Cmp 1a | 7 % of Cmp 1a and 16 % of Cmp 1a and -17 % of Cmp 1a | -3 % of Carbachol and 3 % of Carbachol and 7 % of Carbachol | fold decrease in potency relative to a similar phenyl substituted compound (1.3) (GPR139 [1]; Ca2+ mobilization EC50): 4- to 16 fold |
| Cc1nc2cc(-c3nc(CC(=O)NC(C)c4ccccc4)no3)ccc2o1 (stereo not drawn) [Compound 1.22, CC(C1=CC=CC=C1)NC(CC2=NOC(C3=CC4=C(OC(C)=N4)C=C3)=N2)=O] | 71 % of Cmp 1a and 37 % of Cmp 1a and 44 % of Cmp 1a | 1.58 | 99 ± 2 | 109 % of Cmp 1a and 96 % of Cmp 1a and 93 % of Cmp 1a and 83 % of Cmp 1a and 99 % of Cmp 1a | 90 % of Cmp 1a and 71 % of Cmp 1a and 95 % of Cmp 1a and 84 % of Cmp 1a and 101 % of Cmp 1a | 58 % of Cmp 1a and 43 % of Cmp 1a and 99 % of Cmp 1a and 59 % of Cmp 1a and 110 % of Cmp 1a | 50 % of Cmp 1a and 22 % of Cmp 1a and 51 % of Cmp 1a and 35 % of Cmp 1a and 73 % of Cmp 1a | 30 % of Cmp 1a and 0.909 % of Cmp 1a and 8 % of Cmp 1a and 29 % of Cmp 1a and 36 % of Cmp 1a | 1.28 % of Cmp 1a and -0.203 % of Cmp 1a and -2.54 % of Cmp 1a and 0.332 % of Cmp 1a and 14 % of Cmp 1a | 1.35 % of Cmp 1a and 7.39 % of Cmp 1a and -10 % of Cmp 1a and -1.26 % of Cmp 1a and 4 % of Cmp 1a | 7 % of Cmp 1a and 10 % of Cmp 1a and -6 % of Cmp 1a and 0.314 % of Cmp 1a and 2.72 % of Cmp 1a | -3.6 % of Cmp 1a and 18 % of Cmp 1a and -4.69 % of Cmp 1a and -1.59 % of Cmp 1a and 9 % of Cmp 1a | -5 % of Cmp 1a and 7.5 % of Cmp 1a and -3.72 % of Cmp 1a and 1.69 % of Cmp 1a and 6.38 % of Cmp 1a | 13 % of Cmp 1a and 39 % of Cmp 1a and 19 % of Cmp 1a | -19 % of Carbachol and -2.46 % of Carbachol and -2.2 % of Carbachol | change in potency with larger substituents on the thiophene ring (GPR139 [1]; Ca2+ mobilization): three-fold reduction to a complete loss of activity |
